From patent US4426447A, “Homocitric acid oligoriboside derivative for prevention of dental caries” (Zaidan Hojin Biseibutsu Kagaku Kenkyu Kai, priority 1980, dated 1984)
Counter-ions that a name gives are not always drawn. Like-named read-outs stand apart in the source and are kept apart here.

What was measured:
[1] = test system: dextransucrase; experiment: Inhibitory activity to dextransucrase (turbidity at 600 nm); format: biochemical, Streptococcus mutans ATCC 27607; conditions: qualitative statement; curve only in FIG. 4
Protocol: Dextransucrase was prepared as follows: Streptococcus mutans ATCC 27607 was inoculated to Brain Heart Infusion bouillon (Eiken Chemical Co.) and grown overnight at 37° C. The culture supernatant obtained by centrifugation was precipitated with ammonium sulfate at 50% saturation. The precipitated enzyme was desalted and purified by conventional procedures.

[2] = test system: Streptococcus mutans ATCC 27607; experiment: Inhibition of Streptococcus mutans adherence (adhered plaque turbidity); format: cell-based; conditions: for Turbidity (600 nm): 37° C., 14 hours; for inhibition at 50 µg/mL / inhibition at 100 µg/mL: Streptococcus mutans, ATCC27607, 14 h
Protocol: Heart Infusion bouillon (Difco) containing various concentrations of sucrose was autoclaved and added aseptically with various amounts of ribocitrin aqueous solution (filter-sterilized) or sterile water for control (final volume is 3.0 ml and final concentrations are shown in Table 1). Each tube was inoculated with 1×10^5 CFU of Streptococcus mutans ATCC 27607 grown overnight at 37° C. in Brain Heart Infusion bouillon (Difco) and incubated anaerobically in a candle jar at 37° C. for 14 hours. The tube was positioned at an angle 30° from the horizontal. Nonadherent cells were removed by pouring off the broth and the test tube was washed three times with 3 ml of 5 mM phosphate buffer (pH 6.0). The adhered plaque (insoluble dextran and cellular aggregates formed as a result of insoluble dextran production) was suspended in 3 ml of phosphate buffer described above by mechanical stirring and by scraping the surface with a glass rod. Turbidity of the suspension was measured at 600 nm.

[3] = Solubility (characterizing properties); format: physicochemical; conditions: sodium salt
Description: Ribocitrin in the form of its sodium salt has the following characterizing properties:
2. Soluble in water; insoluble in organic solvents.

Question: With `O=C(O)CC[C@@](CC(=O)O)(O[C@H]1O[C@H](CO)[C@@H](O[C@H]2O[C@H](CO)[C@@H](O)[C@H]2O[C@H]2O[C@H](CO)[C@@H](O)[C@H]2O)[C@H]1O)C(=O)O` [ribocitrin, 2-(S)-[O-α-D-ribofuranosyl-(1→2)-O-α-D-ribofuranosyl-(1→3)-α-D-ribofuranosyloxy]-1,2,4-butanetricarboxylic acid] as the compound, how does the “Inhibitory activity toward dextransucrase (in words)” value [1] read?
Answer: The value was “effective inhibitors of dextransucrase”.

Question: What does the source list for `O=C(O)CC[C@@](CC(=O)O)(O[C@H]1O[C@H](CO)[C@@H](O[C@H]2O[C@H](CO)[C@@H](O)[C@H]2O[C@H]2O[C@H](CO)[C@@H](O)[C@H]2O)[C@H]1O)C(=O)O` [Ribocitrin (sodium salt)]?
Answer: Turbidity (600 nm) ([2]; 50 μg/ml ribocitrin sodium salt, 0.5% sucrose): 0.510; Turbidity (600 nm) ([2]; 50 μg/ml ribocitrin sodium salt, 1.0% sucrose): 0.340; Turbidity (600 nm) ([2]; 50 μg/ml ribocitrin sodium salt, 2.0% sucrose): 0.333; Turbidity (600 nm) ([2]; 100 μg/ml ribocitrin sodium salt, 0.5% sucrose): 0.249; Turbidity (600 nm) ([2]; 100 μg/ml ribocitrin sodium salt, 1.0% sucrose): 0.173; Turbidity (600 nm) ([2]; 100 μg/ml ribocitrin sodium salt, 2.0% sucrose): 0.132; inhibition at 50 µg/mL ([2]; read-out: Percent inhibition, 50 μg/ml ribocitrin sodium salt, 0.5% sucrose, 37° C.): 17%; inhibition at 50 µg/mL ([2]; read-out: Percent inhibition, 50 μg/ml ribocitrin sodium salt, 1.0% sucrose, 37° C.): 43%; inhibition at 50 µg/mL ([2]; read-out: Percent inhibition, 50 μg/ml ribocitrin sodium salt, 2.0% sucrose, 37° C.): 33%; inhibition at 100 µg/mL ([2]; read-out: Percent inhibition, 100 μg/ml ribocitrin sodium salt, 0.5% sucrose, 37° C.): 60%; inhibition at 100 µg/mL ([2]; read-out: Percent inhibition, 100 μg/ml ribocitrin sodium salt, 1.0% sucrose, 37° C.): 71%; inhibition at 100 µg/mL ([2]; read-out: Percent inhibition, 100 μg/ml ribocitrin sodium salt, 2.0% sucrose, 37° C.): 73%; Solubility in organic solvents ([3]; organic solvents): insoluble; Solubility in water ([3]; water): Soluble
